Assay results reported in US7731985B2, “4-aminopyrimidines and their use for the antimicrobial treatment of surfaces” (Ciba Specialty Chemicals Corporation, priority 2002, dated 2010).
Marks after values point to notes of the source that are not given here.

Legend:
Format in all cases: cell-based
[1] = system: Staphylococcus aureus ATCC 6538; experiment: "Microbicidal Activity" suspension test CG 161/EN1040 (Example 12); conditions: S. aureus
Protocol: (§1) Bacteria are incubated overnight in CASO broth and adjusted to an organism count of 1-5×10^5 CFU/ml using 0.85% sodium chloride solution. The test substances are pre-pipetted into microtitre plates in amounts of 8 μl per well. The adjusted test organism suspensions are added in amounts of 192 μl per well to the test substances and mixed. After defined contact times, the test batches are mixed, an aliquot is withdrawn and diluted in several steps in a dilution series of 1:10 in a suitable inactivation medium. The test plates are incubated for 24 hours at 37° C. After incubation, the growth is determined on the basis of the turbidity of the test batches (optical density) at 620 nm in a microplate reader. […] One microtitre plate is used for each test organism. All the substances are tested in duplicate.

[2] = system: Escherichia coli ATCC 10536; experiment: as above; conditions: E. coli
Protocol: as §1

[3] = system: Actynomyces viscosus ATCC 43146; experiment: as above; conditions: A. viscosus
Protocol: as §1

[4] = system: Staphylococcus aureus ATCC 6538; experiment: Agar incorporation test CG128e (Example 11); conditions: 24 hours at 37° C.
Protocol: (§2) [table] 0.3 ml of each dilution step is mixed with 15 ml of nutrient medium while the latter is still liquid. After the nutrient medium has solidified, 10 μl of each of the following organism dilutions of the test strains in 0.85% NaCl solution are spotted onto the agar medium: [table] The plates are incubated at 37° C. for 24 hours (A. niger at 28° C. for 3 days) and then the highest dilution (lowest concentration) of the test substance at which growth is just no longer discernible (corresponds to the MIC) is determined.

[5] = system: Escherichia coli ATCC 10536; experiment: Agar incorporation test CG128e (Example 11); conditions: 24 hours at 37° C.
Protocol: as §2

[6] = system: Staphylococcus epidermidis ATCC 12228; experiment: Agar incorporation test CG128e (Example 11); conditions: 24 hours at 37° C.
Protocol: as §2

[7] = system: Salmonella choleraesuis ATCC 9184; experiment: Agar incorporation test CG128e (Example 11); conditions: 24 hours at 37° C.
Protocol: as §2

[8] = system: Proteus vulgaris ATCC 6896; experiment: Agar incorporation test CG128e (Example 11); conditions: 24 hours at 37° C.
Protocol: as §2

[9] = system: Staphylococcus aureus ATCC 9144; experiment: Agar incorporation test CG128e (Example 11); conditions: 24 hours at 37° C.
Protocol: as §2

[10] = system: C. minutissimum ATCC 23348; experiment: Agar incorporation test CG128e (Example 11); conditions: 24 hours at 37° C.
Protocol: as §2

[11] = system: Propionibacterium acnes (*) ATCC 6919; experiment: Agar incorporation test CG128e (Example 11); conditions: 24 hours at 37° C.; organism marked *
Protocol: as §2

[12] = system: Corynebacterium xerosis* ATCC 373; experiment: Agar incorporation test CG128e (Example 11); conditions: 24 hours at 37° C.; organism marked *
Protocol: as §2

[13] = system: Klebsiella pneumoniae ATCC 4352; experiment: Agar incorporation test CG128e (Example 11); conditions: 24 hours at 37° C.
Protocol: as §2

[14] = system: Pseudomonas aeruginosa ATCC 15442; experiment: Agar incorporation test CG128e (Example 11); conditions: 24 hours at 37° C.
Protocol: as §2

[15] = system: Candida albicans ATCC 10231; experiment: Agar incorporation test CG128e (Example 11); conditions: 24 hours at 37° C.
Protocol: as §2

[16] = system: Escherichia coli NCTC 8196; experiment: Agar incorporation test CG128e (Example 11); conditions: 24 hours at 37° C.
Protocol: as §2

[17] = system: Aspergillus niger ATCC 6275; experiment: Agar incorporation test CG128e (Example 11); conditions: 28° C. for 3 days
Protocol: as §2

[18] = contact time 5 min, test substance 0.12%
[19] = contact time 5 min, test substance 120 ppm
[20] = contact time 30 min, test substance 0.12%
[21] = contact time 30 min, test substance 120 ppm

Compound	log reduction [1, 19] [log]	log reduction [1, 21] [log]	log reduction [2, 19] [log]	log reduction [2, 21] [log]	log reduction [3, 18] [log]	log reduction [3, 19] [log]	MIC (agar incorporation) Staphylococcus aureus ATCC 6538 [4]	MIC (agar incorporation) Escherichia coli ATCC 10536 [5]	MIC (agar incorporation) Staphylococcus epidermidis ATCC 12228 [6]	MIC (agar incorporation) Salmonella choleraesuis ATCC 9184 [7]	MIC (agar incorporation) Proteus vulgaris ATCC 6896 [8]	MIC (agar incorporation) Staphylococcus aureus ATCC 9144 [9]	MIC (agar incorporation) C. minutissimum ATCC 23348 [10]	MIC (agar incorporation) Propionibacterium acnes (*) ATCC 6919 [11]	MIC (agar incorporation) Corynebacterium xerosis* ATCC 373 [12]	MIC (agar incorporation) Klebsiella pneumoniae ATCC 4352 [13]	MIC (agar incorporation) Pseudomonas aeruginosa ATCC 15442 [14]	MIC (agar incorporation) Candida albicans ATCC 10231 [15]	MIC (agar incorporation) Escherichia coli NCTC 8196 [16]	MIC (agar incorporation) Aspergillus niger ATCC 6275 [17]	also measured
CCCCCCCCCCCCNc1cc(C)nc(C(C)C)n1 [Compound of formula 93, 4-dodecylamino-2-isopropyl-6-methylpyrimidine]	1.4	3.8	>5	>5	>5	2	3.75	120	3.75	120	>120	3.75	1.88	3.75 (*)	1.88*	60	>120	>120	120	>120	log reduction [1, 18]: >5 log; log reduction [1, 20]: >5 log; log reduction [2, 18]: >5 log; log reduction [2, 20]: >5 log; log reduction [3, 20]: >5 log; log reduction [3, 21]: 4 log
CCCCCCCCCCCCNc1cc(C)nc(C)n1 [Compound of formula 89]	<1	1.7	4.6	>5	4.9	3.9	7.5	>120	120	>120	60	7.5	3.75	3.75	3.75	>120	>120	>120	120	>120	log reduction [3, 20]: >5 log; log reduction [3, 21]: 4.3 log
CCCCCCCCCCCCNc1cc(C)nc(-c2cccnc2)n1 [Compound of formula 36]	–	–	–	–	–	–	120	>120	>120	>120	>120	120	30	60	60	60**	>120	>120	120	>120	–
